Source: ChEMBL document CHEMBL6103645, “Modular Synthesis of Bioactive Selenoheterocycles for Efficient Cancer Therapy via Electrochemical Selenylation/Cyclization” (J Med Chem, 2025)
pIC50: −log10 of the molar value. Active and inactive are the calls of the source. No cut-off for these calls is given here.

Experiments:
NCI-H460 [1] = assay: Antitumor activity against human NCI-H460 cells xenografted in athymic nude mouse assessed as tumor growth inhibition at 5 mg/kg, iv administered every 2 days and measured after 2 weeks; type: functional; details: NCI-H460, 336 h, read-out: TGI
NCI-H460 [2] = assay: Antitumor activity against human NCI-H460 cells xenografted in athymic nude mouse assessed as change in tumor weight at 10 to 20 mg/kg, iv administered every 2 days and measured after 2 weeks; type: functional, organism-based; details: dose 10-20 mg/kg
NCI-H460 [3] = assay: Anti-tumor activity against human NCI-H460 cells assessed as cell viability incubated for 48 hrs by CCK-8 assay; type: functional, cell-based; details: NCI-H460, 48 h
HT-29 = assay: Anti-tumor activity against human HT-29 cells assessed as cell viability incubated for 48 hrs by CCK-8 assay; type: functional, cell-based
MCF7 = assay: Anti-tumor activity against human MCF7 cells assessed as cell viability incubated for 48 hrs by CCK-8 assay; type: functional, cell-based
HeLa = assay: Anti-tumor activity against human HeLa cells assessed as cell viability incubated for 48 hrs by CCK-8 assay; type: functional, cell-based
NCI-H460 [4] = assay: Inhibition of colony formation in human NCI-H460 cells assessed as reduction in colony formation rate upto 12.5 uM incubated for 14 days by crystal violet staining based analysis; type: functional, cell-based; details: time 14.0 day
NCI-H460 [5] = assay: Anti-migratory activity against human NCI-H460 cells assessed as inhibition of cell migration at 500 nM measured for 48 hrs by wound healing assay; type: functional, cell-based
NCI-H460 [6] = assay: Inhibition of cell invasion in human NCI-H460 cells assessed as decrease in number of invading cells at 500 nM incubated for 48 hrs by transwell assay; type: functional, cell-based
NCI-H460 [7] = assay: Inhibition of epithelial mesenchymal transition in human NCI-H460 cells assessed as decrease in N-cadherin protein expression by Western blotting analysis; type: functional, cell-based
NCI-H460 [8] = assay: Inhibition of epithelial mesenchymal transition in human NCI-H460 cells assessed as increase in E-cadherin protein expression by Western blotting analysis; type: functional, cell-based
NCI-H460 [9] = assay: Induction of apoptosis in human NCI-H460 cells assessed as apoptosis rate at 500 nM incubated for 24 hrs by annexin V-FITC/PI staining based flow cytometry analysis relative to control; type: functional
NCI-H460 [10] = assay: Induction of apoptosis in human NCI-H460 cells assessed as increase in BAX level at 500 nM incubated for 24 hrs by Western blot analysis; type: functional, cell-based
NCI-H460 [11] = assay: Induction of apoptosis in human NCI-H460 cells assessed as increase in caspase-3 level at 500 nM incubated for 24 hrs by Western blot analysis; type: functional, cell-based
NCI-H460 [12] = assay: Induction of apoptosis in human NCI-H460 cells assessed as downregulation of Bcl2 expression at 500 nM incubated for 24 hrs by Western blot analysis; type: functional, cell-based
NCI-H460 [13] = assay: Induction of DNA damage in human NCI-H460 cells assessed as increase in gammaH2AX positive cells by DAPI staining based confocal laser scanning microscopic analysis; type: functional, cell-based
NCI-H460 [14] = assay: Induction of DNA damage in human NCI-H460 cells assessed as increase in gammaH2AX positive cells by immunofluorescence analysis; type: functional, cell-based
NCI-H460 [15] = assay: Upregulation of gamma-H2AX expression in human NCI-H460 cells by Western blot analysis; type: functional, cell-based
NCI-H460 [16] = assay: Effect on DDX10 level in human NCI-H460 cells by TPP analysis; type: functional, cell-based
[17] = biological target: Probable ATP-dependent RNA helicase DDX10 (Homo sapiens) (UniProt Q13206); assay: Binding affinity to DDX10 human NCI-H460 cells incubated for 60 mins at 37 to 67 degreeC by CETSA assay; type: cell-based
NCI-H460 [18] = assay: Downregulation of DDX10 expression in human NCI-H460 cells; type: functional, cell-based
NCI-H460 [19] = assay: Anti-tumor activity against DDX10 knockdown human NCI-H460 cells assessed as inhibition of cell viability; type: functional, cell-based
[20] = Hemolytic activity in BALB/c mouse Red blood cells assessed as effect on morphological structure at 10 to 100 uM incubated for 2 hrs; type: toxicity, cell-based; details: erythrocyte, dose 10-100 µM
[21] = Hemolytic activity in BALB/c mouse Red blood cells assessed as hemolysis at 10 to 100 uM incubated for 2 hrs; type: toxicity, cell-based, Erythrocyte; details: dose 10-100 µM, read-out: Activity
[22] = Toxicity in male athymic nude mouse assessed as change in body weight at 20 to 80 mg/kg, iv administered every 2 days and measured after 2 weeks; type: organism-based; details: in vivo, 336 h, dose 20-80 mg/kg
[23] = Toxicity in male athymic nude mouse assessed as heart damage at 20 to 80 mg/kg, iv administered every 2 days and measured after 2 weeks; type: organism-based; details: in vivo, 336 h, dose 20-80 mg/kg
[24] = Toxicity in male athymic nude mouse assessed as liver damage at 20 to 80 mg/kg, iv administered every 2 days and measured after 2 weeks; type: organism-based; details: in vivo, 336 h, dose 20-80 mg/kg
[25] = Toxicity in male athymic nude mouse assessed as spleen damage at 20 to 80 mg/kg, iv administered every 2 days and measured after 2 weeks; type: organism-based; details: in vivo, 336 h, dose 20-80 mg/kg
[26] = Toxicity in male athymic nude mouse assessed as lung damage at 20 to 80 mg/kg, iv administered every 2 days and measured after 2 weeks; type: organism-based; details: in vivo, 336 h, dose 20-80 mg/kg
[27] = Toxicity in male athymic nude mouse assessed as kidney damage at 20 to 80 mg/kg, iv administered every 2 days and measured after 2 weeks; type: organism-based; details: in vivo, 336 h, dose 20-80 mg/kg
[28] = Toxicity in iv dosed BALB/c mouse assessed as maximum tolerated dose administered every 2 days and measured after 2 weeks; type: organism-based; details: in vivo
NCI-H460 [29] = assay: Antitumor activity against human NCI-H460 cells xenografted in iv dosed athymic nude mouse assessed as tumor growth inhibition administered every 2 days and measured after 2 weeks; type: functional, organism-based; details: dose 5-20 mg/kg
[30] = Toxicity in male athymic nude mouse assessed as change in body weight at 5 to 20 mg/kg, iv administered every 2 days and measured after 2 weeks; type: organism-based; details: in vivo, 336 h, dose 5-20 mg/kg
NCI-H460 [31] = assay: Antitumor activity against human NCI-H460 cells xenografted in athymic nude mouse assessed as change in tumor weight at 5 mg/kg, iv administered every 2 days and measured after 2 weeks; type: functional, organism-based
NCI-H460 [32] = assay: Antitumor activity against human NCI-H460 cells xenografted in athymic nude mouse assessed as change in tumor volume at 5 mg/kg, iv administered every 2 days and measured after 2 weeks; type: functional, organism-based
NCI-H460 [33] = assay: Antitumor activity against human NCI-H460 cells xenografted in athymic nude mouse assessed as tumor growth inhibition at 10 mg/kg, iv administered every 2 days and measured after 2 weeks; type: functional; details: NCI-H460, 336 h, read-out: TGI
NCI-H460 [34] = assay: Antitumor activity against human NCI-H460 cells xenografted in athymic nude mouse assessed as tumor growth inhibition at 20 mg/kg, iv administered every 2 days and measured after 2 weeks; type: functional; details: NCI-H460, 336 h, read-out: TGI
NCI-H460 [35] = assay: Antitumor activity against human NCI-H460 cells xenografted in athymic nude mouse assessed as increase in gamma-H2AX level in tumor at 5 mg/kg, iv administered every 2 days and measured after 2 weeks by immunofluorescence assay; type: functional, organism-based
NCI-H460 [36] = assay: Antitumor activity against human NCI-H460 cells xenografted in athymic nude mouse assessed as increase in gamma-H2AX level in tumor at 20 mg/kg, iv administered every 2 days and measured after 2 weeks by immunofluorescence assay; type: functional, organism-based
NCI-H460 [37] = assay: Antitumor activity against human NCI-H460 cells xenografted in athymic nude mouse assessed as increase in gamma-H2AX level in tumor at 20 mg/kg, iv administered every 2 days and measured after 2 weeks by Western blot assay; type: functional, organism-based
[38] = Toxicity in male athymic nude mouse assessed as morphological changes in heart at 5 to 20 mg/kg, iv administered every 2 days and measured after 2 weeks by H and E staining based analysis; type: organism-based; details: in vivo, 336 h, dose 5-20 mg/kg
[39] = Toxicity in male athymic nude mouse assessed as morphological changes in liver at 5 to 20 mg/kg, iv administered every 2 days and measured after 2 weeks by H and E staining based analysis; type: organism-based; details: in vivo, 336 h, dose 5-20 mg/kg
[40] = Toxicity in male athymic nude mouse assessed as morphological changes in spleen at 5 to 20 mg/kg, iv administered every 2 days and measured after 2 weeks by H and E staining based analysis; type: organism-based; details: in vivo, 336 h, dose 5-20 mg/kg
[41] = Toxicity in male athymic nude mouse assessed as morphological changes in lung at 5 to 20 mg/kg, iv administered every 2 days and measured after 2 weeks by H and E staining based analysis; type: organism-based; details: in vivo, 336 h, dose 5-20 mg/kg
[42] = Toxicity in male athymic nude mouse assessed as morphological changes in kidney at 5 to 20 mg/kg, iv administered every 2 days and measured after 2 weeks by H and E staining based analysis; type: organism-based; details: in vivo, 336 h, dose 5-20 mg/kg
[43] = Toxicity in male athymic nude mouse assessed as tumor necrosis at 5 to 20 mg/kg, iv administered every 2 days and measured after 2 weeks by H and E staining based analysis; type: organism-based; details: in vivo, 336 h, dose 5-20 mg/kg
[44] = Toxicity in male athymic nude mouse assessed as lung metastasis at 5 to 20 mg/kg, iv administered every 2 days and measured after 2 weeks by H and E staining based analysis; type: organism-based; details: in vivo, 336 h, dose 5-20 mg/kg
[45] = Toxicity in male athymic nude mouse assessed as liver metastasis at 5 to 20 mg/kg, iv administered every 2 days and measured after 2 weeks by H and E staining based analysis; type: organism-based; details: in vivo, 336 h, dose 5-20 mg/kg

Probable ATP-dependent RNA helicase DDX10 (Homo sapiens), sequence (Q13206 whole entry): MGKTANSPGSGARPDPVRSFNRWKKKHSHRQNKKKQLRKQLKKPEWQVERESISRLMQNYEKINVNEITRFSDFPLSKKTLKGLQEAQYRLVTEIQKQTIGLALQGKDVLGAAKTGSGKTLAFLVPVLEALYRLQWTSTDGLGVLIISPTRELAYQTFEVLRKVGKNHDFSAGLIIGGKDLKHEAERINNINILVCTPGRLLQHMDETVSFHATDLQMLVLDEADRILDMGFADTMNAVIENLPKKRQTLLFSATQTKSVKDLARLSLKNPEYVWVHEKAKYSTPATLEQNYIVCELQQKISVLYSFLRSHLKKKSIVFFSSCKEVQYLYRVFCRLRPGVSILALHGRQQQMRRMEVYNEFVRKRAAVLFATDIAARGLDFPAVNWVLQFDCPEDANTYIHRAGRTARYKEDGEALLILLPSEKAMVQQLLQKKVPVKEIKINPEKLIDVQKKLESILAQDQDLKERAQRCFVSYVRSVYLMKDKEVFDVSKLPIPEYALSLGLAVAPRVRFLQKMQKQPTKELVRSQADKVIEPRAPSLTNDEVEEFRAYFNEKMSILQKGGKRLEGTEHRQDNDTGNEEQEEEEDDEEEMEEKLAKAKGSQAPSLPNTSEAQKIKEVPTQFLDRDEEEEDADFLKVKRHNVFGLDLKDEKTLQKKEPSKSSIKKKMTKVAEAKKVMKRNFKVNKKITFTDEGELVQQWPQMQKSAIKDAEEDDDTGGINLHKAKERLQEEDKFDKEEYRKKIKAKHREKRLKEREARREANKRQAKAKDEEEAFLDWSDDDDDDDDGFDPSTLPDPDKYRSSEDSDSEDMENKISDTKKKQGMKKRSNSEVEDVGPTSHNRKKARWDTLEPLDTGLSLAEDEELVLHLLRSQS

For COc1ccc([Se]c2c(-c3ccccc3)ncc3cccnc23)cc1, the inhibition in vivo at 5 mg/kg (NCI-H460 [1]) was 60%, the Activity (NCI-H460 [2]) was “inactive” and the pIC50 (NCI-H460 [3]) was 5.80. For the same compound, the Activity (HT-29) was “inactive”, the Activity (MCF7) was “inactive” and the Activity (HeLa) was “inactive”. The inhibition (NCI-H460 [4]) was “Active”, the Activity (NCI-H460 [5]) was “Active” and the inhibition (NCI-H460 [6]) was “Active”. For the same compound, the “N-cadherin expression decrease (qualitative activity)” value (NCI-H460 [7]) was “Active”, the inhibition (NCI-H460 [8]) was “Active” and the Activity (NCI-H460 [9]) was 42.6%. The Activity (NCI-H460 [10]) was “Active”, the Activity (NCI-H460 [11]) was “Active” and the Activity (NCI-H460 [12]) was “Active”. The Activity (NCI-H460 [13]) was “Active”, the Activity (NCI-H460 [14]) was “Active” and the Activity (NCI-H460 [15]) was “Active”. The Activity (NCI-H460 [16]) was “Active”, the Activity [17] was “Active” and the Activity (NCI-H460 [18]) was “Active”. The Activity (NCI-H460 [19]) was “Active”, the Activity [20] was “Non-toxic” and the hemolysis at 2 h, 100 µM [21] was less than 1%. For the same compound, the Activity [22] was “Non-toxic”, the Activity [23] was “Non-toxic” and the Activity [24] was “Non-toxic”. The Activity [25] was “Non-toxic”, the Activity [26] was “Non-toxic” and the Activity [27] was “Non-toxic”. The MTD at 336 h [28] was 160 mg/kg, the TGI (NCI-H460 [29]) was “Dose-dependent-effect” and the Activity [30] was “Non-toxic”. The Activity (NCI-H460 [31]) was “Active”, the Activity (NCI-H460 [32]) was “Active” and the inhibition in vivo at 10 mg/kg (NCI-H460 [33]) was 78%. The inhibition in vivo at 20 mg/kg (NCI-H460 [34]) was 88%, the Activity (NCI-H460 [35]) was “Active” and the Activity (NCI-H460 [36]) was “Active”. The Activity (NCI-H460 [37]) was “Active”, the Activity [38] was “Non-toxic” and the Activity [39] was “Non-toxic”. The Activity [40] was “Non-toxic”, the Activity [41] was “Non-toxic” and the Activity [42] was “Non-toxic”. For the same compound, the Activity [43] was “Non-toxic”, the Activity [44] was “Non-toxic” and the Activity [45] was “Non-toxic”.
